# Measurements taken from patent US9365588B2, “Benzoxazines as modulators of ion channels” (Vertex Pharmaceuticals Incorporated, priority 2011, dated 2016).
# Biological target: human NaV 1.7 (Homo sapiens, UniProt Q15858)
# Assay: E-VIPR optical membrane potential assay with electrical stimulation
# Type: cell-based
# Conditions: sodium channel inhibition; read-out: Binned Activity Data (IC50)
# Summary of the method: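 Membrane-potential read-out: background-subtracted 460 nm/580 nm ratio during a 9 s current-controlled stimulus, 400 Hz scan. Before stimulation, NaV1.7-HEK cells carried coumarin/oxonol dye and compound (final DMSO 0.625%) for 20–35 min at room temperature; tetracaine 125 μM served as positive control.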
# Sequence of human NaV 1.7 (Q15858 whole entry): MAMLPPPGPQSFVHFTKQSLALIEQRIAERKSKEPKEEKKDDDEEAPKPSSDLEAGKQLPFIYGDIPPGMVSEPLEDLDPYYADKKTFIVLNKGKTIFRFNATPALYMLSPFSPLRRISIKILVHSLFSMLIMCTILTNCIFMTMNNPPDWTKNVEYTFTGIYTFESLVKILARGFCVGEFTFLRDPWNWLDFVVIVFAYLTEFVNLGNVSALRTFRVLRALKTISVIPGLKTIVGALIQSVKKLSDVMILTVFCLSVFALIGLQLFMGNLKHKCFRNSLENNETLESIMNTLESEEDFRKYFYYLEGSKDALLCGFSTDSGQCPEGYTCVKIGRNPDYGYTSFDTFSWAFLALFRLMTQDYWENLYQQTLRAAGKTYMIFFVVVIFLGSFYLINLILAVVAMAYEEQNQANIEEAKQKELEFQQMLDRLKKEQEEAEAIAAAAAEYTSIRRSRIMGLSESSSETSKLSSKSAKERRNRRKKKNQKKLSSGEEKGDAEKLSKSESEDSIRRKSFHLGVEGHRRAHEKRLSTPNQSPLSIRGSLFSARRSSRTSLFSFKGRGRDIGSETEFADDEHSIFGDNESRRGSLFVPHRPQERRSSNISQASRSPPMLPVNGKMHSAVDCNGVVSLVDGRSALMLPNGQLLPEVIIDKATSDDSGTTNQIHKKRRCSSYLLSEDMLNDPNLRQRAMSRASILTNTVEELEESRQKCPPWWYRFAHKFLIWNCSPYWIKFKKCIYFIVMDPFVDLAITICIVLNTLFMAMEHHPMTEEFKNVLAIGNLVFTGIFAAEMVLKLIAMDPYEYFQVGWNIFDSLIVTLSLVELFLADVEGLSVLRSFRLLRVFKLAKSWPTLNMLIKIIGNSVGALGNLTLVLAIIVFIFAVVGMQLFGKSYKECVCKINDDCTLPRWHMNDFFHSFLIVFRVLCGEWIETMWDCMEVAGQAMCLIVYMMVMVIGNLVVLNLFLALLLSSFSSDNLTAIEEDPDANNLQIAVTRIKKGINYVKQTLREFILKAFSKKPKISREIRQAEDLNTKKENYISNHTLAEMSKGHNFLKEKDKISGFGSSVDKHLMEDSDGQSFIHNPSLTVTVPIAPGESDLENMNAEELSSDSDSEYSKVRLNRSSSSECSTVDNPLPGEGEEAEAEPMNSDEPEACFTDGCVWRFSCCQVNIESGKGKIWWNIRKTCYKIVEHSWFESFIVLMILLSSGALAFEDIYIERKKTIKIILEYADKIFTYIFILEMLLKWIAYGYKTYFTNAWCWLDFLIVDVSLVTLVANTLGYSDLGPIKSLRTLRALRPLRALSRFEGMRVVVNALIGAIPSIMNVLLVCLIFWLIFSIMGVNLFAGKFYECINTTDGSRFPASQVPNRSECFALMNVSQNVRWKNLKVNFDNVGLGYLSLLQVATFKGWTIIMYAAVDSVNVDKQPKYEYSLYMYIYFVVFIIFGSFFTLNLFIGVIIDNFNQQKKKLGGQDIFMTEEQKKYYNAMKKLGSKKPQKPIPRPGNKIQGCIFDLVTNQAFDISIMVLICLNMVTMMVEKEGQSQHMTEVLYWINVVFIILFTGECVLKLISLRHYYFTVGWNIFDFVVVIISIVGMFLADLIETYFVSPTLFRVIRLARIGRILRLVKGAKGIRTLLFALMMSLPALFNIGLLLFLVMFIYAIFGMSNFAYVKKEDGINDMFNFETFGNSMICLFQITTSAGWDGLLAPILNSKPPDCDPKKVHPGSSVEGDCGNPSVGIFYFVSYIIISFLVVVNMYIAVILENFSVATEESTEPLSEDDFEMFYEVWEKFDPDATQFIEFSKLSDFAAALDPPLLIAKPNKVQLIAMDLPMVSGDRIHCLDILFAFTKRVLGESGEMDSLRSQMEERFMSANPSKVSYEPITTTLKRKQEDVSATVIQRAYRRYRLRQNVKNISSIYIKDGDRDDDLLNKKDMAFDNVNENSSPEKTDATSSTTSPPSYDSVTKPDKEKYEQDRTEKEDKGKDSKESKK
row,IC50 [µM],Structure (SMILES)
1,≤ 2,Cn1cc2c(n1)-c1ccccc1OC21CCN(C(=O)c2ccc(C(C)(C)O)cc2)CC1 [Compound 230]
2,> 5,C[C@](O)(CO)c1ccc(C(=O)N2CCC3(CC2)Oc2ccccc2-n2c(C(F)(F)F)ccc23)cc1 [Compound 231]
3,2 to 5,CC(C)N(C)S(=O)(=O)c1ccc(C(=O)N2CCC3(CC2)Oc2ccccc2-c2c3cnn2C)cc1 [Compound 233]
4,≤ 2,CC(=O)c1ccc2n1-c1ccccc1OC21CCN(C(=O)c2ccc(S(=O)(=O)NC3CC3)cc2)CC1 [Compound 235]
5,> 5,COc1ccc(C)cc1C(=O)N1CCC2(CC1)Oc1ccccc1-c1c2cnn1C [Compound 236]
6,≤ 2,COC[C@@H](C)Oc1ccc(C(=O)N2CCC3(CC2)Oc2ccccc2-n2cccc23)cc1C(F)(F)F [Compound 237]
7,≤ 2,COCCCOc1ccc(C(=O)N2CCC3(CC2)Oc2cc(Cl)ccc2-n2cccc23)cc1C(F)(F)F [Compound 238]
8,≤ 2,CCc1ccc(C(=O)N2CCC3(CC2)Oc2ccccc2-n2cccc23)cc1OC [Compound 239]
9,2 to 5,COc1cc(OC)c(C(=O)N2CCC3(CC2)Oc2ccccc2-c2nn(C)cc23)cc1OC [Compound 240]
10,> 5,O=C(c1ccccc1)N1CCC2(CC1)Oc1ccccc1-n1cccc12 [Compound 241]
11,> 5,Cn1ncc2c1-c1ccccc1OC21CCN(C(=O)c2cccc(F)c2F)CC1 [Compound 242]
12,≤ 2,Cn1ncc2c1-c1ccccc1OC21CCN(C(=O)c2ccc(S(=O)(=O)NC3CC3)cc2)CC1 [Compound 243]
13,2 to 5,CNC(=O)c1ccc2n1-c1ccc(Cl)cc1OC21CCN(C(=O)c2ccc(OC(C)C)c(C)c2)CC1 [Compound 245]
14,≤ 2,CC(C)Oc1ccc(C(=O)N2CCC3(CC2)Oc2ccccc2-c2nn(C)cc23)c(F)c1 [Compound 246]
15,≤ 2,COc1cc(C(=O)N2CCC3(CC2)Oc2ccccc2-n2cccc23)ccc1OC(C)C [Compound 247]
16,≤ 2,COc1ccc(C(=O)N2CCC3(CC2)Oc2cc(F)ccc2-n2cccc23)cc1C(F)(F)F [Compound 249]
17,2 to 5,Cn1ccc(C(=O)N2CCC3(CC2)Oc2cc(Cl)ccc2-n2c(C(F)(F)F)ccc23)cc1=O [Compound 250]
18,≤ 2,CCc1ccc(C(=O)N2CCC3(CC2)Oc2ccccc2-c2c3cnn2C)cc1OC [Compound 251]
19,2 to 5,Cc1c(C(=O)N2CCC3(CC2)Oc2ccccc2-c2c3cnn2C)cnn1-c1ccccc1 [Compound 252]
20,≤ 2,CCn1ncc2c1-c1ccccc1OC21CCN(C(=O)c2ccc(S(=O)(=O)C(C)C)cc2)CC1 [Compound 253]
21,≤ 2,Cc1cc(C(=O)N2CCC3(CC2)Oc2ncccc2-n2nccc23)ccc1OC(C)C [Compound 255]
22,≤ 2,COc1cc(C(=O)N2CCC3(CC2)Oc2ccccc2-c2c3cnn2C)ccc1OC(C)C [Compound 256]
23,≤ 2,CCc1ccc(C(=O)N2CCC3(CC2)Oc2ccccc2-c2sc(C)nc23)cc1OC [Compound 257]
24,≤ 2,Cn1ncc2c1-c1ccc(F)cc1OC21CCN(C(=O)c2ccccc2OC(F)F)CC1 [Compound 258]
25,≤ 2,COc1cccc(C)c1C(=O)N1CCC2(CC1)Oc1ccccc1-c1c2cnn1C [Compound 259]
26,2 to 5,CC(C)S(=O)(=O)c1ccc(C(=O)N2CCC3(CC2)Oc2ccccc2-n2c(C(F)F)ccc23)cc1 [Compound 260]

row,IC50 [µM],Structure (SMILES)
1,≤ 2,Cc1nc(C(=O)N2CCC3(CC2)Oc2ccccc2-c2nn(C)cc23)ccc1OC(C)C [Compound 262]
2,≤ 2,O=C(c1ccc(O[C@H]2CCOC2)c(C(F)(F)F)c1)N1CCC2(CC1)Oc1ccccc1-n1cccc12 [Compound 263]
3,≤ 2,CC(C)(C)c1ccc(C(=O)N2CCC3(CC2)Oc2ccccc2-n2c3ccc2S(C)(=O)=O)cc1 [Compound 265]
4,≤ 2,CCn1ncc2c1-c1cc(F)ccc1OC21CCN(C(=O)c2ccc(OC(C)C)c(C)c2)CC1 [Compound 267]
5,≤ 2,CCCOc1ccc(C(=O)N2CCC3(CC2)Oc2cc(Cl)ccc2-n2cccc23)cc1C(F)(F)F [Compound 269]
6,≤ 2,O=C(c1ccc(S(=O)(=O)C2CC2)cc1)N1CCC2(CC1)Oc1ccccc1-n1c(C(F)(F)F)ccc12 [Compound 270]
7,> 5,Cc1cc(C(=O)N2CCC3(CC2)Oc2cccnc2-c2c3cnn2C)ccc1OC(C)C [Compound 271]
8,> 5,N#Cc1cccc(C(=O)N2CCC3(CC2)Oc2cc(Cl)ccc2-n2cccc23)c1 [Compound 272]
9,≤ 2,Cc1cc(C(=O)N2CCC3(CC2)Oc2ccccc2-c2c3c(C)nn2C)ccc1OC(C)C [Compound 274]
10,≤ 2,CC(C)Oc1ccc(C(=O)N2CCC3(CC2)Oc2ccccc2-c2nn(C)cc23)cc1CO [Compound 276]
11,≤ 2,O=C(c1cc(Cl)cc(Cl)c1)N1CCC2(CC1)Oc1cc(Cl)ccc1-n1cccc12 [Compound 277]
12,≤ 2,COc1cc(C(=O)N2CCC3(CC2)Oc2ccccc2-c2nn(C)cc23)ccc1OC(C)C [Compound 281]
13,≤ 2,CC(C)Oc1ccc(C(=O)N2CCC3(CC2)Oc2ccccc2-n2c3ccc2S(C)(=O)=O)cc1F [Compound 282]
14,≤ 2,Cn1ncc2c1-c1cc(Cl)ccc1OC21CCN(C(=O)c2ccccc2OC(F)F)CC1 [Compound 283]
15,≤ 2,Cn1cc2c(n1)-c1ccccc1OC21CCN(C(=O)c2ccc(OC(F)F)cc2)CC1 [Compound 284]
16,≤ 2,N#Cc1ccc2n1-c1ccccc1OC21CCN(C(=O)c2ccccc2OC(F)F)CC1 [Compound 285]
17,≤ 2,CC(C)Oc1ccc(C(=O)N2CCC3(CC2)Oc2ccccc2-n2c([S+](C)[O-])ccc23)cc1CO (stereo not shown) [Compound 286]
18,≤ 2,COc1cc(C(=O)N2CCC3(CC2)Oc2cc(Cl)ccc2-n2cccc23)ccc1C1(O)COC1 [Compound 287]
19,≤ 2,COc1ccc2c(c1)OC1(CCN(C(=O)c3ccc(OC(C)C)c(C)c3)CC1)c1cnn(C)c1-2 [Compound 289]
20,≤ 2,Cn1ncc2c1-c1ccccc1OC21CCN(C(=O)c2cccc3c2OCC3)CC1 [Compound 290]
21,≤ 2,COc1cc(C(=O)N2CCC3(CC2)Oc2cc(Cl)ccc2-n2cccc23)ccc1OCCOC(F)(F)F [Compound 291]
22,≤ 2,Cn1ncc2c1-c1ccccc1OC21CCN(C(=O)c2ccccc2OC2CCOCC2)CC1 [Compound 292]
23,≤ 2,N#Cc1ccc2n1-c1ccccc1OC21CCN(C(=O)c2ccc(OC[C@@H](O)CO)cc2)CC1 [Compound 293]
24,≤ 2,CC(C)(C)c1ccc(C(=O)N2CCC3(CC2)Oc2ccccc2-n2c(C#N)ccc23)cc1 [Compound 295]
25,≤ 2,CC(C)Oc1ccc(C(=O)N2CCC3(CC2)Oc2ccccc2-n2c3ccc2S(C)(=O)=O)cc1CO [Compound 296]
26,≤ 2,CC(C)S(=O)(=O)c1ccc(C(=O)N2CCC3(CC2)Oc2ccccc2-n2c(C#N)ccc23)cc1 [Compound 297]

row,IC50 [µM],Structure (SMILES)
1,≤ 2,COCCOc1ccc(C(=O)N2CCC3(CC2)Oc2ccccc2-c2c3ccn2C)cc1OC [Compound 298]
2,> 5,COc1cccc(Cl)c1C(=O)N1CCC2(CC1)Oc1ccccc1-c1c2cnn1C [Compound 299]
3,≤ 2,COc1ccc(C(=O)N2CCC3(CC2)Oc2cc(Cl)ccc2-n2c(CO)ccc23)cc1C(F)(F)F [Compound 300]
4,≤ 2,COC[C@@H](C)Oc1ccc(C(=O)N2CCC3(CC2)Oc2cc(F)ccc2-n2cccc23)cc1OC [Compound 303]
5,≤ 2,N#Cc1cc(F)cc(C(=O)N2CCC3(CC2)Oc2cc(Cl)ccc2-n2cccc23)c1 [Compound 304]
6,≤ 2,COCCOc1ccc(C(=O)N2CCC3(CC2)Oc2cc(F)ccc2-n2cccc23)cc1OC [Compound 305]
7,≤ 2,CC(C)Oc1ccc(C(=O)N2CCC3(CC2)Oc2ccccc2-c2c3cnn2C)cc1C#N [Compound 306]
8,≤ 2,COc1cc(C(=O)N2CCC3(CC2)Oc2ccccc2-c2nn(C)cc23)ccc1OC(C)(C)C [Compound 307]
9,≤ 2,CC(C)(O)Cc1ccc(C(=O)N2CCC3(CC2)Oc2ccccc2-n2c(C#N)ccc23)cc1 [Compound 308]
10,> 5,Cn1ncc2c1-c1cc(F)ccc1OC21CCN(C(=O)c2ccccc2C(F)F)CC1 [Compound 309]
11,≤ 2,CC(C)Oc1ccc(C(=O)N2CCC3(CC2)Oc2ccccc2-n2c(C#N)ccc23)c(CO)c1 [Compound 310]
12,≤ 2,CC(=O)c1ccc2n1-c1ccccc1OC21CCN(C(=O)c2ccc(S(=O)(=O)C(C)(C)C)cc2)CC1 [Compound 311]
13,≤ 2,COCCOc1cc(F)c(C(=O)N2CCC3(CC2)Oc2cc(F)ccc2-n2cccc23)cc1OC [Compound 312]
14,≤ 2,COc1cc(C(=O)N2CCC3(CC2)Oc2ccccc2-c2c3cnn2C)ccc1OC(C)(C)C [Compound 313]
15,≤ 2,CCc1ccc(C(=O)N2CCC3(CC2)Oc2ccccc2-n2ccc(C)c23)cc1OC [Compound 314]
16,≤ 2,Cc1cc(C(=O)N2CCC3(CC2)Oc2ccccc2-n2ccc(C)c23)ccc1OC(C)C [Compound 315]
17,≤ 2,COc1cc(C(=O)N2CCC3(CC2)Oc2ccccc2-n2ccnc23)ccc1OC(C)C [Compound 316]
18,> 5,Cn1ncc2c1-c1ccccc1OC21CCN(C(=O)c2cc3ccccc3n2C)CC1 [Compound 317]
19,≤ 2,CC(C)Oc1ccc(C(=O)N2CCC3(CC2)Oc2ccccc2-n2c(C#N)ccc23)c(F)c1 [Compound 318]
20,2 to 5,Cn1ncc2c1-c1ccccc1OC21CCN(C(=O)c2ccccc2NS(C)(=O)=O)CC1 [Compound 319]
21,≤ 2,CCn1ncc2c1-c1ccccc1OC21CCN(C(=O)c2ccccc2OC(F)(F)F)CC1 [Compound 321]
22,2 to 5,Cn1ncc2c1-c1ccccc1OC21CCN(C(=O)c2ccnc3ccccc23)CC1 [Compound 322]
23,2 to 5,CC(C)(N)c1ccc(C(=O)N2CCC3(CC2)Oc2ccccc2-n2c(C#N)ccc23)cc1 [Compound 323]
24,> 5,Cc1nc2ccc(C(=O)N3CCC4(CC3)Oc3ccccc3-c3c4cnn3C)cc2s1 [Compound 324]
